Article PMC3974779, “Pterostilbene-Isothiocyanate Conjugate Suppresses Growth of Prostate Cancer Cells Irrespective of Androgen Receptor Status” (PLoS ONE, 2014)
Residues, ends and D or L forms follow the SMILES beside them. *: point of attachment. Cbz = O=C(OCc1ccccc1)*; CH2F = FC*

Experiments:
[1] = system: SRC-1 in LNCaP cells; experiment: Immunoblot of AR co-activators; assay type: cell-based, human; conditions: DHT treatment
Description: (§1) The whole-cell lysates were prepared as described previously in immunoprecipitation (IP) buffer containing 50 mM Tris-HCl (pH 8.0), 150 mM NaCl, 5 mM EDTA, and 1% Triton X-100. Protein aliquots of 500 μg were then incubated overnight at 4°C using 2 μg of antibody directed against AR. The Protein A-Cl Agarose beads were then added and further incubated for 6 h at 4°C. The immunoprecipitates were washed four times with the IP buffer and the immunocomplexes were recovered by boiling in SDS sample buffer. Finally the western blot was carried out using anti-AR, anti-SRC-1 and anti-GRIP-1 antibodies (Santa Cruz, CA, USA). For western blot analysis, the cell lysates were prepared after harvesting them in lysis buffer. About 40 μg of total protein was electrophoresed by 12% SDS-PAGE, and the western blotting was carried out using standard protocol. In brief, the analyzed proteins were transferred to nylon membranes. The blots were then blocked with TBST buffer (20 mM Tris-Cl, pH 7.5, 150 mM sodium chloride, 0.05% Tween-20) containing 5% skim milk powder. They were then washed with TBST buffer and incubated overnight at 4°C with the same buffer containing appropriate amounts of primary antibodies: caspase-3, Bax, Bcl-2, Akt, p-Akt, ERK, p-ERK, AR, SRC-1, GRIP-1 (1∶500) and β-actin (1∶1000). The blots were then washed and incubated with anti-rabbit secondary antibody (1∶20,000) conjugated with horseradish peroxidase (HRP). Color development was performed in the dark by using an ECL kit (Amersham, GE Healthcare, Buckinghamshire, UK). The developed blots were subjected to densitometric analysis by ImageJ 1.43 software (NIH, USA) using β-actin as internal control.

[2] = system: GRIP-1 in LNCaP cells; experiment: Immunoblot of AR co-activators; assay type: cell-based, human; conditions: DHT treatment
Description: as §1

[3] = system: p53 protein in LNCaP cells; experiment: Immunoblot of p53 with p53 inhibitor; assay type: cell-based, human; conditions: 20 μM PFT-α, 20 and 40 μM conjugate, 24 h
Description: The whole-cell lysates were prepared as described previously in immunoprecipitation (IP) buffer containing 50 mM Tris-HCl (pH 8.0), 150 mM NaCl, 5 mM EDTA, and 1% Triton X-100. Protein aliquots of 500 μg were then incubated overnight at 4°C using 2 μg of antibody directed against AR. The Protein A-Cl Agarose beads were then added and further incubated for 6 h at 4°C. The immunoprecipitates were washed four times with the IP buffer and the immunocomplexes were recovered by boiling in SDS sample buffer. Finally the western blot was carried out using anti-AR, anti-SRC-1 and anti-GRIP-1 antibodies (Santa Cruz, CA, USA). For western blot analysis, the cell lysates were prepared after harvesting them in lysis buffer. About 40 μg of total protein was electrophoresed by 12% SDS-PAGE, and the western blotting was carried out using standard protocol. In brief, the analyzed proteins were transferred to nylon membranes. […]
Since there was no significant difference in the number of apoptotic cells between conjugate treated LNCaP (wild type p53) and PC-3 (p53 null) cells (p<0.05), it was intriguing to check if p53 has any role in conjugate induced apoptosis of PCa cells. […] Next we determined the effect of p53-inhibition on conjugate induced cell death by using MTT assay.

[4] = system: LNCaP cells; experiment: MTT cytotoxicity assay; assay type: cell-based; conditions: Homo sapiens, 24 h, 24 h exposure, mean ± SEM, read-out: IC50 value (50% growth inhibition)
Description: (§2) MTT assay was carried out as described previously. In brief, 5×10^3 cells in 200 μl of medium were seeded in 96-well plates (Griener, Germany). After 24 h, the cells were treated with various concentrations (0.1, 1, 10, 100 and 1000 μM) of RESV, PTER and conjugate. The control cells were treated with 0.1% DMSO (vehicle control). The cultured cells were assayed after 24 h by adding 20 μl of 5 mg/ml MTT followed by incubating at 37°C for 4 h. The MTT containing media was then aspirated and 200 μl DMSO (Himedia, Mumbai, India) was added to dissolve the formazone crystals. The optical density (OD) was measured at 570 nm using ELISA plate reader (Fluostar optima, BMG Labtech, Germany). The percentage inhibition was calculated as: [drawing 1]
(§3) The dose response curve and IC50 values were obtained by nonlinear regression analysis [non-linear regression (sigmoidal dose response with variable slope)] using Graph Pad Prism, version 5.02 software (Graph Pad Software Inc., CA, USA).

[5] = system: CHO cells; experiment: MTT cytotoxicity assay; assay type: cell-based; conditions: Cricetulus griseus, CHO noncancer cells, 24 h exposure, read-out: IC50 value (50% growth inhibition)
Description: as §2, §3

[6] = system: PC-3 cells; experiment: MTT cytotoxicity assay; assay type: cell-based; conditions: Homo sapiens; PC-3, MTT, 24 h exposure, mean ± SEM; read-out: IC50 value (50% growth inhibition)
Description: as §2, §3

[7] = system: COS-1 cells; experiment: MTT cytotoxicity assay; assay type: cell-based; conditions: Chlorocebus aethiops, COS-1 noncancer cells, 24 h exposure, read-out: IC50 value (50% growth inhibition)
Description: as §2, §3

[8] = system: p-ERK in PC-3 cells; experiment: Immunoblot of ERK phosphorylation; assay type: cell-based, human; conditions: 24 h
Description: as §1
(§4) The siRNAs against human Akt and ERK and control siRNA were purchased commercially from Santa Cruz Biotechnology (USA). The LNCaP and PC-3 PCa cells were transfected with siRNAs (at a final concentration of 100 nM) using polyfect transfection reagent (Qiagen, CA, USA) according to manufacturer’s instructions. After 24 h of transfection, the cells were washed properly and replaced with fresh medium. The cells were then treated with 20 μM conjugate for 24 h, and finally protein lysates were prepared on completion of treatment. The levels of p-Akt, p-ERK and cleaved caspase-3 expressions were detected by Western blot analysis.

[9] = system: AR in LNCaP cells; experiment: Immunofluorescence staining of endogenous AR; assay type: cell-based, human; conditions: varying doses of conjugate, 20 μM RESV, DHT
Description: The cells were then incubated with AR rabbit polyclonal antibody diluted 1∶200 in blocking buffer for 1 h at RT. Finally, the cells were washed with PBS and incubated with FITC-labelled anti-rabbit secondary antibody diluted 1∶1000 in blocking buffer for 30 min at room temperature. The cells were then observed under a fluorescence microscope (Zeiss, Axiovert 25, Germany).

[10] = system: AR protein in LNCaP cells; experiment: Immunoblot of AR protein; assay type: cell-based, human
Description: as §1

[11] = system: caspase-8 activity in PC-3 cells; experiment: Caspase colorimetric protease assay; assay type: cell-based, human; conditions: PC-3, 24 h, high dose
Description: (§5) Caspase activity was determined using ApoTarget caspase colorimetric protease assay sampler kit (KHZ1001; Invitrogen) according to the manufacturer’s instructions. Briefly, both the PCa cells were treated with increasing doses of conjugate and RESV for 24 h. The cells were then collected, washed in PBS, and lysed in 50 μl lysis buffer on ice for 10 min. After centrifugation, the supernatant containing 150 μg proteins were incubated with 200 μM of caspase-3 (Ac-DEVD-pNA), caspase-8 (Ac-IETD-pNA) and caspase-9 (Ac-LEHD-pNA) substrates respectively in reaction buffer at 37°C for 1 h in 96 well flat bottom plate. Levels of released pNA were then measured at 405 nm wavelength with ELISA plate reader (Fluostar optima, BMG Labtech, Germany). The fold-increase in caspase-3, -8, and -9 activities were determined by direct comparison to the level of un-induced control. For the caspase inhibitor assay, cells were pretreated with a synthetic pan-caspase inhibitor (Z-VAD-FMK), caspase-8 inhibitor (Z-IETD-FMK) and caspase-9 inhibitor (Z-LEHD-FMK) for 1 h before the addition of conjugate and the cell death were analyzed by MTT assay as discussed earlier.

[12] = system: caspase-3 activity in PC-3 cells; experiment: Caspase colorimetric protease assay; assay type: cell-based, human; conditions: PC-3, 10, 20 and 40 μM, 24 h
Description: as §5

[13] = system: caspase-9 activity in LNCaP cells; experiment: Caspase colorimetric protease assay; assay type: cell-based, human; conditions: 24 h
Description: as §5

[14] = system: caspase-3 activity in LNCaP cells; experiment: Caspase colorimetric protease assay; assay type: cell-based, human; conditions: 24 h
Description: as §5

[15] = system: caspase-9 activity in PC-3 cells; experiment: Caspase colorimetric protease assay; assay type: cell-based, human; conditions: PC-3, 10, 20 and 40 μM, 24 h
Description: as §5

[16] = system: p-Akt in LNCaP cells; experiment: Immunoblot of Akt phosphorylation; assay type: cell-based, human; conditions: below 20 μM, 24 h
Description: as §1, §4

[17] = system: p-Akt in PC-3 cells; experiment: Immunoblot of Akt phosphorylation; assay type: cell-based, human; conditions: 24 h
Description: as §1, §4

[18] = system: caspase-3 expression in LNCaP cells; experiment: Immunoblot analysis of apoptotic markers; assay type: cell-based, human; conditions: highest dose (40 μM), immunoblot densitometry
Description: as §1

[19] = system: caspase-3 expression in PC-3 cells; experiment: Immunoblot analysis of apoptotic markers; assay type: cell-based, human; conditions: PC-3, highest dose (40 μM), immunoblot densitometry
Description: as §1

[20] = system: LNCaP cells; experiment: Caspase inhibitor assay (conjugate-induced cell death, MTT); assay type: cell-based, human; conditions: 20 μM caspase inhibitor 1 h before 20 μM conjugate, MTT after 24 h
Description: as §5
(§6) Figure 2 The conjugate induces G2/M phase arrest and caspase dependent cell death in prostate cancer cells. Cell cycle distribution of (A) PC-3 and (B) LNCaP cells upon treatment with varying doses of conjugate. Results are presented as mean ± SEM of three independent experiments. *represents statistically significant difference with respect to vehicle treated PC-3 and LNCaP cells respectively corresponding to each stage of cell cycle at p<0.05. (C) The effects of varying doses of conjugate (left panel) and resveratrol (right panel) on caspase-8, -9 and -3 activities in PC-3 and (D) LNCaP cells. Results are the mean ± SEM of three independent experiments. *represents statistically significant difference with respect to control cells for respective caspases tested at p<0.05. (E) The effect of caspase inhibitors on conjugate-induced cell death in PC-3 and (F) LNCaP cells. The cells were pre-treated with 20 μM of respective caspase inhibitors: Z-LEHDFMK (caspase-9 inhibitor); Z-IETDFMK (caspase-8 inhibitor); and Z-VAD-FMK (general caspase inhibitor) for 1 h before the addition of 20 μM conjugate. Cell death was measured 24 h after conjugate treatment using MTT assay. Data are the mean ± SEM of three independent experiments. *and # represents statistically significant difference with respect to control (vehicle) and conjugate treated cells respectively for each cell lines at p<0.05. ns, non-significant.

[21] = system: PC-3 cells; experiment: as above; assay type: cell-based, human; conditions: PC-3, 20 μM caspase inhibitor 1 h before 20 μM conjugate, MTT after 24 h
Description: as §5, §6

Question: Which “increase in expression of SRC-1” value [1] does the source give for C[C@]12CCC(=O)C[C@@H]1CC[C@@H]1[C@@H]2CC[C@]2(C)[C@@H](O)CC[C@@H]12 [DHT, dihydrotestosterone, reference compound] here?
Answer: Its value is 1.2 fold.

Question: And the “change in expression of GRIP-1” value [2]?
Answer: Its value is “no significant change”.

Question: How did the “expression of p53 protein” value [3] turn out when Cc1ccc(C(=O)Cn2c3c(sc2=N)CCCC3)cc1 [PFT-α, pifithrin-α, reference compound] was run?
Answer: Its value is “significantly down regulated”.

Question: What does the source list for COc1cc(/C=C/c2ccc(O)cc2)cc(OC)c1 [Pterostilbene]?
Answer: IC50 [4]: ~66.4 µM; IC50 [5]: > 100 µM; IC50 [6]: 75 ± 2.55 µM; IC50 [7]: > 100 µM

Question: What does the source list for Oc1ccc(/C=C/c2cc(O)cc(O)c2)cc1 [Resveratrol, reference compound]?
Answer: reduction in level of p-ERK ([8]; PC-3, 20 μM): 1.3 folds; reduction in level of p-ERK ([8]; PC-3, 40 μM): 1.8 folds; AR immunofluorescence intensity [9]: marginal decrease; inhibition of AR protein levels ([10]; 10 and 20 μM, absence of DHT): did not show any significant inhibition; inhibition of DHT induced AR protein levels ([10]; till 20 μM, 10 nM DHT): did not show any significant inhibition; caspase-8 activity [11]: marginal increase; caspase-3 enzyme activity [12]: dose-dependent augmentation; caspase-9 activity [13]: significant increase; caspase-3 activity [14]: significant increase; caspase-9 enzyme activity [15]: dose-dependent augmentation; IC50 [4]: ~82.2 µM; IC50 [5]: > 100 µM; IC50 [6]: 95 ± 1.13 µM; IC50 [7]: > 100 µM; effect on level of p-Akt [16]: negligible effects; decrease in level of p-Akt ([17]; PC-3, 20 μM): about 1.2 folds; decrease in level of p-Akt ([17]; PC-3, 40 μM): ~1.6 folds; enhancement of caspase-3 expression [18]: 4.5 folds; enhancement of caspase-3 expression [19]: 3.5 folds

Question: Which “inhibition of conjugate induced cell death/apoptosis” value [20] does the source give for COC(=O)CC[C@H](NC(=O)[C@H](CC(C)C)NC(=O)OCc1ccccc1)C(=O)N[C@@H](Cc1c[nH]cn1)C(=O)N[C@@H](CC(=O)OC)C(=O)CF [Z-LEHD-FMK] (Cbz-LE(OMe)HD(OMe)-CH2F) here?
Answer: The value was “almost completely blocked”.

Question: Which results are given for Cbz-Val-Ala-Asp-CH2F?
Answer: inhibition of conjugate induced cell death/apoptosis [20]: significant inhibition of cell death; inhibition of conjugate induced cell death [21]: significant inhibition of cell death

Question: For “Z-IETD-FMK: caspase-8 specific inhibitor”, which “inhibition of conjugate induced cell death/apoptosis” value [20] is on record?
Answer: The value was “only partially inhibited”.

Question: What about the “inhibition of conjugate induced cell death” value [21] of the same compound?
Answer: The value was “completely ineffective”.
